Patent US11660331B2, “Heroin vaccine” (THE SCRIPPS RESEARCH INSTITUTE, priority 2017, dated 2023)

System: anti-heroin polyclonal antibodies from Group G6
Assay: SPR competitive binding assay, Her-BSA-loaded sensor chip (Biacore 3000)
Design: species or system mouse
Details: sera from Group G6 (vaccine stored as liquid at RT for 30 days)

In the case of CN1CC[C@]23c4c5ccc(O)c4O[C@H]2[C@@H](O)C=C[C@H]3[C@H]1C5 [morphine], the “cross-reactivity to the polyclonal antibodies” value is reported as “low cross-reactivity”.
